Reference: DBAASP
Converted amounts (≈) assume the structure as drawn.

Assays:
Test in all cases: ≥ marks a high value that may be exact or a test limit, other limits are often not marked, values filed in µg/mL are converted to µM
[1] = tested on: Clavibacter michiganensis subsp. michiganensis DSM 46294
[2] = tested on: Xanthomonas vesicatoria DSM 50861
[3] = tested on: Pseudomonas syringae pv. tomato DC3000
[4] = tested on: Pectobacterium carotovorum subsp. carotovorum DSM 30168
[5] = tested on: Pseudomonas corrugata DSM 7228
[6] = tested on: Pseudomonas syringae pv. syringae DSM 10604
[7] = tested on: Pseudomonas aeruginosa H1001
[8] = tested on: Escherichia coli NCTC 10418
[9] = tested on: Staphylococcus aureus NCTC 10788
[10] = tested on: Candida albicans NCPF 1467
Pseudomonas aeruginosa = tested on: Pseudomonas aeruginosa
[11] = tested on: Candida albicans F7-39/IDE99
[12] = tested on: Micrococcus luteus CCM 144
Staphylococcus aureus = tested on: Staphylococcus aureus
Escherichia coli B = tested on: Escherichia coli B
Bacillus subtilis 168 = tested on: Bacillus subtilis 168

Compound	MIC [1]	MIC [2]	MIC [3]	MIC [4]	MIC [5]	MIC [6]	other results
CC[C@H](C)[C@H](NC(=O)[C@H](CC(C)C)NC(=O)[C@H](CCCN=C(N)N)NC(=O)[C@H](CCCCN)NC(=O)[C@H](CC(C)C)NC(=O)[C@H](CC(C)C)NC(=O)[C@H](CCCCN)NC(=O)[C@H](CCCCN)NC(=O)[C@H](CCCN=C(N)N)NC(=O)[C@@H](N)CCCCN)C(N)=O [KRKKLLKRLI]	7.72 µM (≈ 9.99 µg/mL)	7.72 µM (≈ 9.99 µg/mL)	0.772 µM (≈ 0.999 µg/mL)	7.72 µM (≈ 9.99 µg/mL)	0.386 µM (≈ 0.5 µg/mL)	0.0772 µM (≈ 0.1 µg/mL)	
CC[C@H](C)[C@H](NC(=O)[C@H](CCCN=C(N)N)NC(=O)[C@H](CCCN=C(N)N)NC(=O)[C@@H]1CCCN1C(=O)[C@H](Cc1c[nH]c2ccccc12)NC(=O)[C@H](CCCN=C(N)N)NC(=O)[C@@H]1CCCN1C(=O)[C@H](CCCN=C(N)N)NC(=O)[C@@H]1CCCN1C(=O)[C@H](CC(C)C)NC(=O)[C@H](Cc1ccc(O)cc1)NC(=O)[C@@H]1CCCN1C(=O)[C@@H]1CCCN1C(=O)[C@H](CCCCN)NC(=O)[C@H](CC(=O)O)NC(=O)[C@@H](N)C(C)C)C(=O)N[C@@H](Cc1ccc(O)cc1)C(=O)N[C@@H](CC(N)=O)C(=O)N[C@@H](CCCN=C(N)N)C(=O)NCC(=O)O [VDKPPYLPRPRWPRRIYNRG]							MIC [7]: 0.0591 µM (≈ 0.15 µg/mL)
CC(C)C[C@H](NC(=O)[C@H](CC(C)C)NC(=O)[C@H](CCCN=C(N)N)NC(=O)[C@H](CCCCN)NC(=O)[C@H](CC(C)C)NC(=O)[C@H](CC(C)C)NC(=O)[C@H](CCCCN)NC(=O)[C@H](CCCCN)NC(=O)[C@H](CCCN=C(N)N)NC(=O)[C@@H](N)CCCCN)C(N)=O [KRKKLLKRLL]	3.86 µM (≈ 5 µg/mL)	3.86 µM (≈ 5 µg/mL)	0.772 µM (≈ 0.999 µg/mL)	7.72 µM (≈ 9.99 µg/mL)	0.0772 µM (≈ 0.1 µg/mL)	0.0772 µM (≈ 0.1 µg/mL)	
CC[C@H](C)[C@H](NC(=O)[C@H](CO)NC(=O)[C@H](CC(N)=O)NC(=O)[C@@H](NC(=O)[C@H](Cc1ccccc1)NC(=O)[C@H](C)NC(=O)[C@H](CO)NC(=O)[C@H](C)NC(=O)[C@H](Cc1ccccc1)NC(=O)[C@H](CC(=O)O)NC(=O)[C@H](CCCCN)NC(=O)[C@H](C)NC(=O)CNC(=O)[C@@H](NC(=O)[C@H](CCCCN)NC(=O)[C@H](CC(C)C)NC(=O)[C@H](CCCCN)NC(=O)[C@H](CCC(=O)O)NC(=O)[C@H](CC(C)C)NC(=O)[C@H](Cc1ccccc1)NC(=O)CN)[C@@H](C)O)C(C)C)C(=O)N[C@@H](CCCCN)C(N)=O [GFLEKLKTGAKDFASAFVNSIK]							MIC [8]: ≥ 54 µM; MIC [9]: ≥ 216 µM; MIC [10]: ≥ 108 µM
CC[C@H](C)[C@H](NC(=O)[C@H](CC(C)C)NC(=O)[C@H](CCCCN)NC(=O)[C@H](CCCCN)NC(=O)[C@@H](NC(=O)[C@@H](NC(=O)[C@H](CCCCN)NC(=O)[C@H](CCCCN)NC(=O)[C@H](CCCCN)NC(=O)[C@H](CCCCN)NC(=O)[C@H](CCCCN)NC(=O)[C@@H](N)CCCN=C(N)N)[C@@H](C)CC)[C@@H](C)CC)C(N)=O [RKKKKKIIKKLI]	6.56 µM (≈ 9.99 µg/mL)	6.56 µM (≈ 9.99 µg/mL)	1.64 µM (≈ 2.5 µg/mL)	6.56 µM (≈ 9.99 µg/mL)	1.64 µM (≈ 2.5 µg/mL)	0.328 µM (≈ 0.5 µg/mL)	
CC[C@H](C)[C@H](NC(=O)[C@H](C)NC(=O)CNC(=O)[C@H](Cc1c[nH]c2ccccc12)NC(=O)[C@H](CC(N)=O)NC(=O)[C@@H](N)CC(C)C)C(=O)N[C@@H](CC(C)C)C(=O)N[C@@H](CCCCN)C(=O)N[C@@H](Cc1cnc[nH]1)C(=O)N[C@H](C(=O)N[C@H](C(=O)N[C@@H](CCCCN)C(N)=O)[C@@H](C)CC)[C@@H](C)CC [LNWGAILKHIIK]							MIC (Pseudomonas aeruginosa): 51.7 µM (≈ 72.6 µg/mL); MIC [11]: 7.3 µM (≈ 10.3 µg/mL); MIC [12]: 1.5 µM (≈ 2.11 µg/mL); MIC (Staphylococcus aureus): 10.6 µM (≈ 14.9 µg/mL); MIC (Escherichia coli B): 3.7 µM (≈ 5.2 µg/mL); MIC (Bacillus subtilis 168): 1.3 µM (≈ 1.83 µg/mL)
